Assay [1] deals with unphosphorylated c-FMS kinase (uFMS, Seq. ID no. 1) (Homo sapiens (Human), UniProt P07333). Kind of assay: uFMS kinase assay (ADP production coupled to pyruvate kinase/lactate dehydrogenase). It is filed as biochemical. The conditions noted are these: enzymatic assay, ATP 500 μM; read-out: uFMS. Summed up:
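Unphosphorylated FMS (10 nM) with polyE4Y 1 mg/mL and 500 μM ATP in 90 mM Tris pH 7.5, 10 mM MgCl2, 0.2% octyl-glucoside, 1% DMSO. ADP formation was coupled via pyruvate kinase/LDH to NADH oxidation, followed at A340 for 4 h at 30° C.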

The subject of assay [2] is M-NFS-60 cells. Kind of assay: M-NFS-60 cell proliferation assay (resazurin). In kind it is cell-based. Particulars: 67 h incubation. Summed up:
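Cells kept in medium containing 20 ng/mL mouse recombinant M-CSF. Fluorescence was read at ex 540/em 600 nm, and IC50 was fitted from percent inhibition across a range of inhibitor concentrations.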
(Alamar Blue is a resazurin reagent that responds to reducing activity.)

In assay [3] the target is unphosphorylated PDGFRβ kinase (uPDGFRβ, Seq. ID No. 3) (Homo sapiens (Human), UniProt P09619). Kind of assay: Unphosphorylated PDGFRβ kinase assay (coupled pyruvate kinase/lactate dehydrogenase). It is filed as biochemical. Particulars: enzymatic assay, ATP 500 μM. Summed up:
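Construct residues 557-1106, unphosphorylated, 15.7 nM, with poly E4Y 2.5 mg/mL and 500 μM ATP, Tris pH 7.5, 1% DMSO, 30 °C. ADP coupled to NADH oxidation via PK/LDH, A340 followed 4 h; rate from 1.5-2.5 h versus no-compound control, IC50 from percent-inhibition series.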

In assay [4] the target is unphosphorylated c-KIT kinase (uKIT, Seq. ID no. 2) (Homo sapiens (Human), UniProt P10721). The assay is described as follows: uKit kinase assay (coupled pyruvate kinase/lactate dehydrogenase). It is filed as biochemical. The conditions noted are these: enzymatic assay, ATP 2000 μM. Summed up: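 The read-out was a continuous PK/LDH-coupled decrease in NADH absorbance at 340 nm, monitored at 30 °C over 4 h. IC50 came from % inhibition based on rates at 3–4 h. The GST-tagged unphosphorylated KIT (12 nM) was used with polyE4Y substrate, 2000 μM ATP and 10 mM Mg2+ at pH 7.5, with serially diluted compound.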
Sequence of unphosphorylated c-KIT kinase (uKIT, Seq. ID no. 2) (P10721 other isoform, or with tags, fused parts or gaps): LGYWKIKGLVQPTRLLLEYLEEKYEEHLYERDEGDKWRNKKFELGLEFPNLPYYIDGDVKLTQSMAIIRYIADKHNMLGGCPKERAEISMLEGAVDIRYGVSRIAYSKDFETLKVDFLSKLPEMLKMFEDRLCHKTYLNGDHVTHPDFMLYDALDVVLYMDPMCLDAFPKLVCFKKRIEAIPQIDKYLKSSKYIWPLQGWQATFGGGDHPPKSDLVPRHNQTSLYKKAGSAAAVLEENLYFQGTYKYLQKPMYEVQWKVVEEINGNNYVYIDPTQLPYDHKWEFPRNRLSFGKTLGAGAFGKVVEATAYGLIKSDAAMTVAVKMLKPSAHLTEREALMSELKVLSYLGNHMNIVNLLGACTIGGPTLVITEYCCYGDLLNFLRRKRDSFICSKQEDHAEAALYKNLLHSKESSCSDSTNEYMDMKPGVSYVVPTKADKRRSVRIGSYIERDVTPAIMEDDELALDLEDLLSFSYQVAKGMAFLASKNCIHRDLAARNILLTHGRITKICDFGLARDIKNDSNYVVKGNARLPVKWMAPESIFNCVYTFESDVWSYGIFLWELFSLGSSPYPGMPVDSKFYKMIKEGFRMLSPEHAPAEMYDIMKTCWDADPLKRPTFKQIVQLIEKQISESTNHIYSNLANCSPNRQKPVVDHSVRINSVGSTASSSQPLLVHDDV

pIC50: −log10 of the molar value.

Sequence of unphosphorylated c-FMS kinase (uFMS, Seq. ID no. 1) (P07333 538-972): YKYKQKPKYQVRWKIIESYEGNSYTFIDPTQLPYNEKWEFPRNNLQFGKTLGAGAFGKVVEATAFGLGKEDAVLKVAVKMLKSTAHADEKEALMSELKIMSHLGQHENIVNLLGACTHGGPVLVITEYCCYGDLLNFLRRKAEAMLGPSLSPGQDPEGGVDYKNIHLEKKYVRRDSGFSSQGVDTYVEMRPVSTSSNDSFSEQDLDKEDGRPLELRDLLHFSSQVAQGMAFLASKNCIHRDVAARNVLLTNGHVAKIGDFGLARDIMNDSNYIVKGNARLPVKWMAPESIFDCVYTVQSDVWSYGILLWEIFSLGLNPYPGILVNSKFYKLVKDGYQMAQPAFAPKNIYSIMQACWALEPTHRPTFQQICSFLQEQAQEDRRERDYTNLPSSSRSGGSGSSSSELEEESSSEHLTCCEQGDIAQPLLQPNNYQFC
Sequence of unphosphorylated PDGFRβ kinase (uPDGFRβ, Seq. ID No. 3) (P09619 557-1106): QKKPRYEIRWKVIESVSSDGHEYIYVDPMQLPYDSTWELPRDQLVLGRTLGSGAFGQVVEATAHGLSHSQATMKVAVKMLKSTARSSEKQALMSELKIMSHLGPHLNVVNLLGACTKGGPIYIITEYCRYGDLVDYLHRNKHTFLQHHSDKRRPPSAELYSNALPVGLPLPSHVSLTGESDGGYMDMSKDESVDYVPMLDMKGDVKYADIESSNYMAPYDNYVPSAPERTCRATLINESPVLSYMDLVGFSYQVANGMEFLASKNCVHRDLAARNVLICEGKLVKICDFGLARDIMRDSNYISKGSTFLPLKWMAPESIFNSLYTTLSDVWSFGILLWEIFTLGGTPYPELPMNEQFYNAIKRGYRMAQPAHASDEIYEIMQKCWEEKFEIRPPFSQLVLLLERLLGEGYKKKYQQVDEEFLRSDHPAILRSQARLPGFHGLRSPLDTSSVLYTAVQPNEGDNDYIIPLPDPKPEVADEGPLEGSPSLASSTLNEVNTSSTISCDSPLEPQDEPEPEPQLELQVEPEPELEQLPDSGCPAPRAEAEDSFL

For `Cc1nc(NC(=O)N2CCN(C(C)C)C2=O)ccc1Oc1ccnc(-c2cnn(C)c2)c1` [Example 35, 3-isopropyl-N-(6-methyl-5-((2-(1-methyl-1H-pyrazol-4-yl)pyridin-4-yl)oxy)pyridin-2-yl)-2-oxoimidazolidine-1-carboxamide], the pIC50 is more than 8.00 in assay [1], 7.00 to 8.00 in assay [2], 6.00 to 7.00 in assay [3] and 6.00 to 7.00 in assay [4].

The values above are taken from patent US9133183B2, “Imidazolidinones and analogs exhibiting anti-cancer and anti-proliferative activities” (Deciphera Pharmaceuticals, LLC, priority 2013, dated 2015).
